Data set [1] relates to Staphylococcus aureus. The experiment in a line: Antibacterial activity against Staphylococcus aureus ATCC 13709 by broth microdilution method. Format: functional.
Data set [2] deals with Streptococcus pneumoniae. The experiment in a line: Antibacterial activity against Streptococcus pneumoniae ATCC 49619 by broth microdilution method. The format is functional. On the technique in general: In broth dilution the organism is exposed to a series of concentrations in liquid medium.
Data set [3] relates to Streptococcus pyogenes. Briefly: Antibacterial activity against Streptococcus pyogenes ATCC 700294 by broth microdilution method. As to conditions: M1 GAS. Format: functional.
For data set [4], the system named is Moraxella catarrhalis. Briefly: Antibacterial activity against Moraxella catarrhalis ATCC 23246 by broth microdilution method. The format is functional.
Data set [5] relates to Haemophilus influenzae. Briefly: Antibacterial activity against Haemophilus influenzae ATCC 49247 by broth microdilution method. The format is functional.
For data set [6], the system named is Splenocyte. Briefly: Inhibition of LPS-induced IL-6 production in mouse splenocytes at 50 uM after 2 hrs preincubation by ELISA. Format: functional.
Data set [7] concerns THP-1. Briefly: Cytotoxicity against human THP1 cells at 100 uM after 24 hrs by MTS assay. The format is cell-based. As to conditions: thp-1, 24 h.
The subject of data set [8] is Mus musculus. The experiment in a line: Antiinflammatory activity against LPS-induced lung neutrophilia in BALB/cJ mouse model assessed as reduction in neutrophil numbers in bronchoalveolar lavage fluid at 100 mg/kg, ip treated 2 hrs before LPS challenge measured after 24 hrs by hematological analyzer. Format: functional, organism-based. Further details: dose 100 mg/kg.

This passage reports MIC, inhibition and Activity results from ChEMBL document CHEMBL1955768, “Impact of stereochemistry on the biological activity of novel oleandomycin derivatives” (Bioorg Med Chem, 2012).

SMILES strings stand for the structures. ≈ marks a conversion by molar mass, not a printed value. Calls of active or inactive are those of the source. No cut-off for these calls is given here.

As for `CO[C@H]1C[C@H](O[C@H]2[C@H](C)[C@@H](O[C@@H]3O[C@H](C)C[C@H](N(C)C)[C@H]3O)[C@@H](C)C[C@H](C)[C@H](O)[C@H](C)[C@@H](O)[C@@H](C)[C@@H](C)OC(=O)[C@@H]2C)O[C@@H](C)[C@@H]1O`, the MIC in data set [1], in data set [2], in data set [3], in data set [4] and in data set [5] was > 64 µg/mL each time. Besides, 50 µM produced 12% inhibition in data set [6]. In data set [7], the Activity entry was “Non-toxic”.
On to `CO[C@H]1C[C@H](O[C@H]2[C@H](C)[C@@H](O[C@@H]3O[C@H](C)C[C@H](N(C)C)[C@H]3O)[C@@H](C)C[C@H](C)[C@@H](O)[C@H](C)[C@@H](O)[C@@H](C)[C@@H](C)OC(=O)[C@@H]2C)O[C@@H](C)[C@@H]1O`, for which the MIC in data set [1], in data set [2], in data set [3], in data set [4] and in data set [5] was > 64 µg/mL throughout. Besides, the inhibition at 50 µM in data set [6] was found to be 2%. Moreover, the Activity result in data set [7] is given as “Non-toxic”. Also, the result in data set [8] was Active.
For `CO[C@H]1C[C@H](O[C@H]2[C@H](C)[C@@H](O[C@@H]3O[C@H](C)C[C@H](N(C)C)[C@H]3O)[C@@H](C)C[C@@H](C)[C@H](O)[C@H](C)[C@@H](O)[C@@H](C)[C@@H](C)OC(=O)[C@@H]2C)O[C@@H](C)[C@@H]1O`, the MIC in data set [1] is > 64 µg/mL; in data set [2], 4 µg/mL (≈ 5.92 µM); in data set [3] it was > 64 µg/mL; in data set [4], > 64 µg/mL; in data set [5], > 64 µg/mL. In data set [6], this compound had an inhibition at 50 µM of 61%. The Activity result in data set [7] is “Non-toxic”. For the same compound, in data set [8], the outcome was Active.
On to `CO[C@H]1C[C@H](O[C@H]2[C@H](C)[C@@H](O[C@@H]3O[C@H](C)C[C@H](N(C)C)[C@H]3O)[C@@H](C)C[C@H](C)C(=O)[C@H](C)[C@@H](O)[C@@H](C)[C@@H](C)OC(=O)[C@@H]2C)O[C@@H](C)[C@@H]1O`, for which the MIC in data set [1], in data set [2], in data set [3], in data set [4] and in data set [5] was > 64 µg/mL throughout. For the same compound, the inhibition at 50 µM in data set [6] came out at 42%. Moreover, in data set [7], the Activity entry is recorded as “Non-toxic”.
Regarding `C=C1C[C@H](C)[C@H](O[C@@H]2O[C@H](C)C[C@H](N(C)C)[C@H]2O)[C@@H](C)[C@H](O[C@H]2C[C@H](OC)[C@@H](O)[C@H](C)O2)[C@@H](C)C(=O)O[C@H](C)[C@H](C)[C@H](O)[C@@H](C)[C@@H]1O`, the MIC in data set [1], in data set [2], in data set [3], in data set [4] and in data set [5] was > 64 µg/mL throughout. Moreover, the inhibition at 50 µM in data set [6] was determined as 13%. For the same compound, the Activity result in data set [7] is on record as “Non-toxic”.
On to `CO[C@H]1C[C@H](O[C@H]2[C@H](C)[C@@H](O[C@@H]3O[C@H](C)C[C@H](N(C)C)[C@H]3O)[C@@H](C)C[C@@H](C)[C@@H](O)[C@H](C)[C@@H](O)[C@@H](C)[C@@H](C)OC(=O)[C@@H]2C)O[C@@H](C)[C@@H]1O`, for which the MIC in data set [1], in data set [2], in data set [3], in data set [4] and in data set [5] was > 64 µg/mL throughout. This compound came in with an inhibition at 50 µM in data set [6] of 2%. Also, the Activity result in data set [7] is reported as “Non-toxic”.
Consider `C=C1C[C@H](C)[C@H](O[C@@H]2O[C@H](C)C[C@H](N(C)C)[C@H]2O)[C@@H](C)[C@H](O[C@H]2C[C@H](OC)[C@@H](O)[C@H](C)O2)[C@@H](C)C(=O)O[C@H](C)[C@H](C)[C@H](O)[C@@H](C)[C@H]1O`, for which the MIC in data set [1], in data set [2], in data set [3], in data set [4] and in data set [5] was > 64 µg/mL throughout. For the same compound, the inhibition at 50 µM in data set [6] was found to be 13%. In addition, in data set [7], the Activity entry was “Non-toxic”.
With `CO[C@H]1C[C@H](O[C@H]2[C@H](C)[C@@H](O[C@@H]3O[C@H](C)C[C@H](N(C)C)[C@H]3O)[C@@H](C)C[C@@H](C)C(=O)[C@H](C)[C@@H](O)[C@@H](C)[C@@H](C)OC(=O)[C@@H]2C)O[C@@H](C)[C@@H]1O`, the MIC is 4 µg/mL (≈ 5.94 µM) in data set [1]; 0.25 µg/mL (≈ 0.371 µM) in data set [2]; 0.5 µg/mL (≈ 0.742 µM) in data set [3]; 2 µg/mL (≈ 2.97 µM) in data set [4]; > 64 µg/mL in data set [5]. For the same compound, at 50 µM the inhibition in data set [6] was 69%. In addition, in data set [7], the Activity result is recorded as “Non-toxic”.

As usually defined, the inhibition is how much of the control response was suppressed. A higher inhibition goes with a strong effect.
